Data on 26 compounds can be found in US9815796B2 (Merck Sharp & Dohme Corp., priority 2013, dated 2017).

The target of test [1] is Rhesus PDE2A3 (Macaca mulatta, UniProt B3VTJ2). The experiment in a line: PDE2 fluorescence polarization (IMAP FP) inhibition assay, rhesus enzyme. It counts as biochemical, rhesus macaque. The procedure, abridged:
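IMAP FP (mP from parallel and perpendicular fluorescence against substrate-only control) was read ≥1 h after adding binding reagent. The preceding 60 min room-temperature reaction contained FAM-cAMP (50 nM) and cGMP (1 uM) in pH 7.2 Tris buffer with MgCl2 and DTT. Enzyme was supernatant of sonicated AD293 cells expressing rhesus PDE2A3; compounds were 3-fold titrated, DMSO 1% final.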

In test [2] the target is human PDE2A1 (Homo sapiens (Human), UniProt O00408). The experiment in a line: IMAP FP PDE selectivity panel, human PDE2A1. It counts as biochemical. In outline:
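IMAP FP format: substrate 50 nM FAM-cAMP plus 1000 nM cGMP, enzyme (insect-cell GST-tagged human PDE2A1) at ~20% conversion, 60 min reaction at room temperature. Apparent inhibition constants calculated from parallel/perpendicular fluorescence with KM 10,000 nM.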

The mark [3] stands for this setting: Rhesus PDE2, Lab A, read-out: Rhesus PDE2 Ki (nM) - Lab A.
Where [4] appears, read: Human PDE2, Lab A, read-out: Human PDE2 Ki (nM) - Lab A.
Setting [5] is: Rhesus PDE2, Lab B, read-out: Rhesus PDE2 Ki (nM) - Lab B.
Where [6] appears, read: Human PDE2, Lab B, read-out: Human PDE2 Ki (nM) - Lab B.

Like-named read-outs stand apart in the source and are kept apart here.

Sequence of human PDE2A1 (O00408 other isoform, or with tags, fused parts or gaps): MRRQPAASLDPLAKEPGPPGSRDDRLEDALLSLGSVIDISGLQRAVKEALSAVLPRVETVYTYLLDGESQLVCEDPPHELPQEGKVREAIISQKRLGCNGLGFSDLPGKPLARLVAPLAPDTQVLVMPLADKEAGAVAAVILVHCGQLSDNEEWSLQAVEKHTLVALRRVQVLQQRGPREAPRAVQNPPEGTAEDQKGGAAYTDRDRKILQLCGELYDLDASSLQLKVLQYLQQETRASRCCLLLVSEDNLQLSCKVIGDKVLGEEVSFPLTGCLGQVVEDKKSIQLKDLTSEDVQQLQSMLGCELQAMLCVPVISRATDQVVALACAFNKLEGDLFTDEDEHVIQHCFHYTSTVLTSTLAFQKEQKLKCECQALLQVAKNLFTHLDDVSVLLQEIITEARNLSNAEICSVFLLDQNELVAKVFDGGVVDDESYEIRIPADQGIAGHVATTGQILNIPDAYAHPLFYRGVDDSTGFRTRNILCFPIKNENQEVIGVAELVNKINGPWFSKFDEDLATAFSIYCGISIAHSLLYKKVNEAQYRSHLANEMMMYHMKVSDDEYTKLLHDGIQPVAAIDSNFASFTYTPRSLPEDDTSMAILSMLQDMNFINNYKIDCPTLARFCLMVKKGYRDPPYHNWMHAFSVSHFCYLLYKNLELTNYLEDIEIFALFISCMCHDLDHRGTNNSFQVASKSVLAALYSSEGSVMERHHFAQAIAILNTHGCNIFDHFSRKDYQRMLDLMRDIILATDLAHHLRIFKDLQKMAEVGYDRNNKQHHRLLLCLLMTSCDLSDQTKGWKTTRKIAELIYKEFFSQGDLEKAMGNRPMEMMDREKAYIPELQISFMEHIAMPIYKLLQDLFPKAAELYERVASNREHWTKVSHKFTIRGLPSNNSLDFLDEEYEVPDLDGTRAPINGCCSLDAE
Sequence of Rhesus PDE2A3 (B3VTJ2 1-941): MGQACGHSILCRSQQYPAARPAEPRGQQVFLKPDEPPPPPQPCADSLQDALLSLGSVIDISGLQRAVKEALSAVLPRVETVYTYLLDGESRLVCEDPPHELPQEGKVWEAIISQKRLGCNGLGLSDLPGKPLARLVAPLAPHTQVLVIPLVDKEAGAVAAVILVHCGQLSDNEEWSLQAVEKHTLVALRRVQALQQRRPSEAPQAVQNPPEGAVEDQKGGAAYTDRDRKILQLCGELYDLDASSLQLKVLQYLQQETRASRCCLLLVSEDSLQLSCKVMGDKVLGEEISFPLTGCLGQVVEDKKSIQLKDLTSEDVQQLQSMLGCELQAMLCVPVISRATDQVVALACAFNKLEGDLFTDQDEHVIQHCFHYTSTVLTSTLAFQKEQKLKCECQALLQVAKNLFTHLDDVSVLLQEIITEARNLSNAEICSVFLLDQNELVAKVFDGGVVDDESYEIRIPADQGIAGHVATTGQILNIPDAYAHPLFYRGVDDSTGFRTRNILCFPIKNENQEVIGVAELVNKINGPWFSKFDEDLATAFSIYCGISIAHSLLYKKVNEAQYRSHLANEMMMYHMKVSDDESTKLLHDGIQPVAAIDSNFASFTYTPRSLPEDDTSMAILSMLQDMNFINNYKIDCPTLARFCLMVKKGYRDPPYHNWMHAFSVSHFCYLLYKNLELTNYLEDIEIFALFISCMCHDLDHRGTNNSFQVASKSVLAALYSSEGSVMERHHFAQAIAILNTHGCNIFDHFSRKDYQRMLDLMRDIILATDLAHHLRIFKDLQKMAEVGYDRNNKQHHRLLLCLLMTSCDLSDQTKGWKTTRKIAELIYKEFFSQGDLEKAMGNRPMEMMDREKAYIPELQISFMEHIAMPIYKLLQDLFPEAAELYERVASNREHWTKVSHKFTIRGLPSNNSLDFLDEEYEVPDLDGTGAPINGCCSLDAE

`O=C(N[C@@H](c1ccc(C(F)(F)F)cc1)C1CC1)c1cc(=O)[nH]c(-c2ccccc2)n1` [Example 177, N-{(R)-cyclopropyl[4-(trifluoromethyl)phenyl]methyl}-6-oxo-2-phenyl-1,6-dihydropyrimidine-4-carboxamide]: the figures for the inhibitory constant (Ki) in test [1] (setting [3]) and in test [2] (setting [4]) were 3.8 nM and 3.1 nM, respectively.

As to `C[C@@H](NC(=O)c1cc(=O)[nH]c(-c2ccc(F)c(F)c2)n1)c1ccc(C(F)(F)F)cc1` [Example 139, 2-(3,4-difluorophenyl)-6-oxo-N-{(1R)-1-[4-(trifluoromethyl)phenyl]ethyl}-1,6-dihydropyrimidine-4-carboxamide], the figures for the Ki in test [1] (setting [3]) and in test [2] (setting [4]) were 138 nM and 144 nM, respectively.

As to `COc1ccc(Cc2nc(C(=O)N[C@@H](c3ccc(SC(F)(F)F)c(F)c3)C(C)C)cc(=O)[nH]2)cc1F` [Example 512, 2-(3-fluoro-4-methoxybenzyl)-N-[(1R)-1-{3-fluoro-4-[(trifluoromethyl)sulfanyl]phenyl}-2-methylpropyl]-6-oxo-1,6-dihydropyrimidine-4-carboxamide], the Ki (in general, the dissociation constant of the complex between target and ligand, obtained from inhibition or displacement) in test [1] (setting [5]) was 1.5 nM; in test [2] (setting [6]), 1.6 nM.

Regarding `CC(C)[C@@H](NC(=O)c1cc(=O)[nH]c(C2CC2)n1)c1ccc(OC(F)(F)F)cc1` [Example 191, 2-cyclopropyl-N-{(1R)-2-methyl-1-[4-(trifluoromethoxy)phenyl]propyl}-6-oxo-1,6-dihydropyrimidine-4-carboxamide], the values for the Ki in test [1] (setting [3]) and in test [2] (setting [4]) were 3.4 nM and 1.2 nM, respectively.

As to `Cc1nc(C(=O)N[C@H](C)c2ccc(CC(F)(F)F)cc2)cc(=O)[nH]1` [Example 45, 2-methyl-6-oxo-N-{(1R)-1-[4-(2,2,2-trifluoroethyl)phenyl]ethyl}-1,6-dihydropyrimidine-4-carboxamide], the inhibition constant Ki in test [1] (setting [3]) was 52 nM; in test [2] (setting [4]) it was 35 nM.

`CC[C@@H](NC(=O)c1cc(=O)[nH]c(C(C)(C)c2ccc(OC)cc2)n1)c1ccc(OC(F)(F)F)c(F)c1` [Example 504, N-{(1R)-1-[3-fluoro-4-(trifluoromethoxy)phenyl]propyl}-2-[1-(4-methoxyphenyl)-1-methylethyl]-6-oxo-1,6-dihydropyrimidine-4-carboxamide]: the figures for the inhibition constant (Ki) in test [1] (setting [5]) and in test [2] (setting [6]) were 42 nM and 30 nM, respectively.

Consider `Cc1nc(C(=O)N[C@H](C)c2ccc(OC(F)(F)F)cc2)cc(=O)[nH]1` [Example 9, 2-methyl-6-oxo-N-{(1R)-1-[4-(trifluoromethoxy)phenyl]ethyl}-1,6-dihydropyrimidine-4-carboxamide], for which the Ki amounted to 21 nM in test [1] (setting [3]) and 16 nM in test [2] (setting [4]).

Consider `CC(NC(=O)c1cc(=O)[nH]c(-c2ccccc2)n1)c1ccc(-n2cncn2)cc1` (centres unmarked) [Example 363, 6-oxo-2-phenyl-N-{1-[4-(1H-1,2,4-triazol-1-yl)phenyl]ethyl}-1,6-dihydropyrimidine-4-carboxamide], for which the results for the inhibitory constant (Ki) in test [1] (setting [3]), in test [1] (setting [5]) and in test [2] (setting [6]) were 245 nM, 356 nM and 354 nM, respectively.

For the compound `COc1ccc(C(C)(C)c2nc(C(=O)N[C@@H](c3ccc(C(F)(F)F)c(F)c3)C(C)C)cc(=O)[nH]2)cc1` [Example 486, N-{(1R)-1-[3-fluoro-4-(trifluoromethyl)phenyl]-2-methylpropyl}-2-[1-(4-methoxyphenyl)-1-methylethyl]-6-oxo-1,6-dihydropyrimidine-4-carboxamide], the inhibition constant Ki in test [1] (setting [5]) was found to be 60 nM; in test [2] (setting [6]), 46 nM.

For `CC[C@@H](NC(=O)c1cc(=O)[nH]c(C2CC2)n1)c1ccc(C(F)(F)F)c(F)c1` [Example 254, 2-cyclopropyl-N-{(1R)-1-[3-fluoro-4-(trifluoromethyl)phenyl]propyl}-6-oxo-1,6-dihydropyrimidine-4-carboxamide], the inhibition constant Ki is 17 nM in test [1] (setting [3]), 23 nM in test [1] (setting [5]), roughly 13 nM in test [2] (setting [4]) and 22 nM in test [2] (setting [6]).

As to `COc1ccc(Cc2nc(C(=O)N[C@@H](c3ccc(C(F)(F)F)c(F)c3)C(C)C)cc(=O)[nH]2)cc1` [Example 472, N-{(1R)-1-[3-fluoro-4-(trifluoromethyl)phenyl]-2-methylpropyl}-2-(4-methoxybenzyl)-6-oxo-1,6-dihydropyrimidine-4-carboxamide], the values for the inhibition constant (Ki) in test [1] (setting [5]) and in test [2] (setting [6]) were 1.6 nM and 1.7 nM, respectively.

With `O=C(N[C@@H](c1ccc(SC(F)(F)F)cc1)C1CC1)c1cc(=O)[nH]c(C2CC2)n1` [Example 214, 2-cyclopropyl-N-[(R)-cyclopropyl{4-[(trifluoromethyl)sulfanyl]phenyl}methyl]-6-oxo-1,6-dihydropyrimidine-4-carboxamide], the results for the Ki in test [1] (setting [3]) and in test [2] (setting [4]) were 5 nM and 2.4 nM, respectively.

`COc1ccc(Cc2nc(C(=O)N[C@@H](c3ccc(SC(F)(F)F)c(F)c3)C(C)C)cc(=O)[nH]2)cc1` [Example 470, N-[(1R)-1-{3-fluoro-4-[(trifluoromethyl)sulfanyl]phenyl}-2-methylpropyl]-2-(4-methoxybenzyl)-6-oxo-1,6-dihydropyrimidine-4-carboxamide]: the figures for the Ki in test [1] (setting [5]) and in test [2] (setting [6]) were 1.2 nM and 1.3 nM, respectively.

Turning to `Cc1cc([C@@H](C)NC(=O)c2cc(=O)[nH]c(-c3ccccc3)n2)ccc1C(F)(F)F` [Example 189], the results for the inhibition constant (Ki) in test [1] (setting [3]) and in test [2] (setting [4]) were 10 nM and 9.7 nM, respectively.

`Cc1nc(C(=O)N[C@@H](c2ccc(SC(F)(F)F)cc2)C2CC2)cc(=O)[nH]1` [Example 41, N-[(R)-cyclopropyl{4-[(trifluoromethyl)sulfanyl]phenyl}methyl]-2-methyl-6-oxo-1,6-dihydropyrimidine-4-carboxamide]: the Ki came out at 9.2 nM in test [1] (setting [3]) and 5.2 nM in test [2] (setting [4]).

Turning to `CCC(NC(=O)c1cc(=O)[nH]c(-c2ccccc2)n1)c1ccc(C(C)(C)C)cc1` (centres unmarked) [Example 163, N-[1-(4-tert-butylphenyl)propyl]-6-oxo-2-phenyl-1,6-dihydropyrimidine-4-carboxamide], the inhibitory constant (Ki) in test [1] (setting [3]) stood at 61 nM; in test [2] (setting [4]), 36 nM.

`CCc1nc(C(=O)N[C@H](C)c2ccc(C(F)(F)F)cc2)c(CC)c(=O)[nH]1` [Example 333, (R)-2,5-diethyl-6-oxo-N-(1-(4-(trifluoromethyl)phenyl)ethyl)-1,6-dihydropyrimidine-4-carboxamide]: the Ki in test [1] (setting [3]) amounted to 89 nM; in test [2] (setting [4]) it was 80 nM.

In the case of `CC[C@@H](NC(=O)c1cc(=O)[nH]c(-c2ncccn2)n1)c1ccc(S(F)(F)(F)(F)F)cc1` [Example 257, 6-oxo-N-{(1R)-1-[4-(pentafluoro-λ^6-sulfanyl)phenyl]propyl}-1,6-dihydro-2,2′-bipyrimidine-4-carboxamide], the inhibitory constant (Ki) came to 2.6 nM in test [1] (setting [3]), 4 nM in test [1] (setting [5]) and 3.8 nM in test [2] (setting [6]).

Turning to `CC[C@@H](NC(=O)c1cc(=O)[nH]c(C)n1)c1ccc(OC(F)(F)F)c(F)c1` [Example 39, N-{(1R)-1-[3-fluoro-4-(trifluoromethoxy)phenyl]propyl}-2-methyl-6-oxo-1,6-dihydropyrimidine-4-carboxamide], the Ki worked out at 17 nM in test [1] (setting [3]) and 8.8 nM in test [2] (setting [4]).

As for `CC(C)(C)[C@@H](NC(=O)c1cc(=O)[nH]c(-c2ccccc2)n1)c1ccc(OC(F)(F)F)cc1` [Example 462, N-{(1R)-2,2-dimethyl-1-[4-(trifluoromethoxy)phenyl]propyl}-6-oxo-2-phenyl-1,6-dihydropyrimidine-4-carboxamide], the results for the Ki in test [1] (setting [5]) and in test [2] (setting [6]) were 1.4 nM and 1.5 nM, respectively.

Take `Cc1nc(C(=O)N[C@@H](c2ccc(S(F)(F)(F)(F)F)cc2)C2CC2)cc(=O)[nH]1` [Example 405, N-{(R)-cyclopropyl[4-(pentafluoro-λ^6-sulfanyl)phenyl]methyl}-2-methyl-6-oxo-1,6-dihydropyrimidine-4-carboxamide]: the Ki was determined as 17 nM in test [1] (setting [5]) and 15 nM in test [2] (setting [6]).

Take `CC1Cc2cc(C(C)NC(=O)c3cc(=O)[nH]c(-c4ccccc4)n3)ccc2O1` (centres unmarked) [Example 379, N-[1-(2-methyl-2,3-dihydro-1-benzofuran-5-yl)ethyl]-6-oxo-2-phenyl-1,6-dihydropyrimidine-4-carboxamide]: the Ki in test [1] (setting [3]) is 69 nM; in test [2] (setting [6]), 114 nM.

Regarding `CC[C@@H](NC(=O)c1cc(=O)[nH]c(C2CC2)n1)c1ccc(OC(F)(F)F)cc1` [Example 225, 2-cyclopropyl-6-oxo-N-{(1R)-1-[4-(trifluoromethoxy)phenyl]propyl}-1,6-dihydropyrimidine-4-carboxamide], the inhibition constant Ki in test [1] (setting [3]) turned out to be 8.3 nM; in test [2] (setting [4]) it was 4.6 nM.

With `CC(C)[C@@H](NC(=O)c1cc(=O)[nH]c(-c2ccccc2)n1)c1ccc(S(F)(F)(F)(F)F)cc1` [Example 388, N-{(1R)-2-methyl-1-[4-(pentafluoro-λ^6-sulfanyl)phenyl]propyl}-6-oxo-2-phenyl-1,6-dihydropyrimidine-4-carboxamide], the Ki in test [1] (setting [5]) was found to be 4.7 nM; in test [2] (setting [6]) it was 3.9 nM.

Turning to `COc1ccc(C(C)(C)c2nc(C(=O)N[C@@H](c3ccc(SC(F)(F)F)cc3)C(C)C)cc(=O)[nH]2)cc1` [Example 490, 2-[1-(4-methoxyphenyl)-1-methylethyl]-N-[(1R)-2-methyl-1-{4-[(trifluoromethyl)sulfanyl]phenyl}propyl]-6-oxo-1,6-dihydropyrimidine-4-carboxamide], the values for the Ki in test [1] (setting [5]) and in test [2] (setting [6]) were 43 nM and 31 nM, respectively.

As for `O=C(NC1(c2ccc(C(F)(F)F)cc2)CCC1)c1cc(=O)[nH]c(-c2ncccn2)n1` [Example 286, 6-oxo-N-{1-[4-(trifluoromethyl)phenyl]cyclobutyl}-1,6-dihydro-2,2′-bipyrimidine-4-carboxamide], the Ki in test [1] (setting [3]) is 83 nM; in test [2] (setting [4]), 60 nM.
